ChEMBL document CHEMBL5223095, “Structure activity relationship of N-1 substituted 1,5-naphthyrid-2-one analogs of oxabicyclooctane-linked novel bacterial topoisomerase inhibitors as broad-spectrum antibacterial agents (Part-9)” (Bioorg Med Chem Lett, 2022)
Values after ≈ are worked out from the molar mass of the structure shown.

What was measured:
Assay type in all cases: functional
Staphylococcus aureus = assay: Antibacterial activity against methicillin-resistant Staphylococcus aureus OITII-971 assessed as bacterial growth inhibition by CLSI protocol agar-based assay
Escherichia coli = assay: Antibacterial activity against Escherichia coli ATCC 25922 assessed as bacterial growth inhibition by CLSI protocol agar-based assay
Streptococcus pneumoniae = assay: Antibacterial activity against Streptococcus pneumoniae IID553 assessed as bacterial growth inhibition by CLSI protocol agar-based assay
Enterococcus faecium = assay: Antibacterial activity against Vanomycin-resistant Enterococcus faecium assessed as bacterial growth inhibition by CLSI protocol agar-based assay
Acinetobacter baumannii = assay: Antibacterial activity against Acinetobacter baumannii IID876 assessed as bacterial growth inhibition by CLSI protocol agar-based assay
Pseudomonas aeruginosa = assay: Antibacterial activity against Pseudomonas aeruginosa PAO1 assessed as bacterial growth inhibition by CLSI protocol agar-based assay

| Structure (SMILES) | MIC (Staphylococcus aureus) [µg/mL] | MIC (Escherichia coli) [µg/mL] | MIC (Streptococcus pneumoniae) [µg/mL] | MIC (Enterococcus faecium) [µg/mL] | MIC (Acinetobacter baumannii) [µg/mL] | MIC (Pseudomonas aeruginosa) [µg/mL] |
| --- | --- | --- | --- | --- | --- | --- |
| COc1ccc2ncc(F)c(CCC34CCC(NCc5ccc6c(n5)NC(=O)CO6)(CC3)CO4)c2n1 | 0.016 (≈ 0.0324 µM) | 1 (≈ 2.03 µM) |  |  |  |  |
| O=C1COc2ccc(CNC34CCC(C[C@]5(O)Cn6c(=O)ccc7ncc(F)c5c76)(CC3)OC4)nc2N1 | 0.25 (≈ 0.493 µM) | 4 (≈ 7.88 µM) |  |  |  |  |
| O=c1ccc2ncc(F)c3c2n1C[C@@]3(O)CC12CCC(NCc3cc4c(cn3)OCCO4)(CC1)CO2 | 0.5 (≈ 1.01 µM) | 16 (≈ 32.4 µM) |  |  |  |  |
| O=C1COc2ccc(CNC34CCC(CCc5c(F)cnc6ccc(=O)n(C/C=N/O)c56)(CC3)OC4)nc2N1 | 0.25 (≈ 0.466 µM) | 4 (≈ 7.45 µM) | 0.5 (≈ 0.932 µM) | 4 (≈ 7.45 µM) | 2 (≈ 3.73 µM) | 8 (≈ 14.9 µM) |
| O=C(NC12CCC(CCc3c(F)cnc4ccc(=O)n(CCO)c34)(CC1)OC2)c1cc2c(cn1)OCCO2 | 1 (≈ 1.91 µM) | > 32 | 2 (≈ 3.81 µM) | 16 (≈ 30.5 µM) | 32 (≈ 61 µM) | > 32 |
| O=c1ccc2ncc(F)c(CCC34CCC(NCc5cnc(-c6cccnc6)s5)(CC3)CO4)c2n1CCO | > 16 | > 16 | > 16 | > 16 | > 16 | > 32 |
| O=C(O)Cn1c(=O)ccc2ncc(F)c(CCC34CCC(NCc5ccc6c(n5)NC(=O)CO6)(CC3)CO4)c21 | 16 (≈ 29.8 µM) | > 64 | 64 (≈ 119 µM) | > 64 | > 64 | > 64 |
| O=C1COc2ccc(C(=O)NC34CCC(CCc5c(F)cnc6ccc(=O)n(CCO)c56)(CC3)OC4)nc2N1 | 0.125 (≈ 0.233 µM) | 16 (≈ 29.8 µM) | 1 (≈ 1.86 µM) | 4 (≈ 7.44 µM) | 4 (≈ 7.44 µM) | 32 (≈ 59.5 µM) |
| CCOC(=O)Cn1c(=O)ccc2ncc(F)c(CCC34CCC(NCc5ccc6c(n5)NC(=O)CO6)(CC3)CO4)c21 | 0.063 (≈ 0.111 µM) | 8 (≈ 14.1 µM) | 1 (≈ 1.77 µM) | 8 (≈ 14.1 µM) | 1 (≈ 1.77 µM) | 32 (≈ 56.6 µM) |
| O=c1ccc2ncc(F)c(CCC34CCC(NCc5cc6c(cn5)OCCC6)(CC3)CO4)c2n1CCO | 0.063 (≈ 0.124 µM) | 8 (≈ 15.7 µM) | 0.25 (≈ 0.492 µM) | 4 (≈ 7.86 µM) | 1 (≈ 1.97 µM) | > 64 |
| CC(C)(O)Cn1c(=O)ccc2ncc(F)c(CCC34CCC(NCc5ccc6c(n5)NC(=O)CO6)(CC3)CO4)c21 | 8 (≈ 14.5 µM) | > 64 | 64 (≈ 116 µM) | > 64 | 64 (≈ 116 µM) | > 64 |
| O=c1ccc2ncc(F)c(CCC34CCC(NCc5cnc(-c6ccncc6)s5)(CC3)CO4)c2n1CCO | > 32 | > 32 | > 32 | > 32 | > 32 | > 32 |
| O=c1ccc2ncc(F)c(CCC34CCC(NCc5cnc(-c6ncccn6)s5)(CC3)CO4)c2n1CCO | 1 (≈ 1.86 µM) | > 16 | 4 (≈ 7.45 µM) | > 16 | > 16 | > 32 |
| O=C1COc2ccc(CNC34CCC(CCc5c(F)cnc6ccc(=O)n(CCO)c56)(CC3)OC4)nc2N1 | 0.063 (≈ 0.12 µM) | 2 (≈ 3.82 µM) | 0.5 (≈ 0.955 µM) | 2 (≈ 3.82 µM) | 0.5 (≈ 0.955 µM) | 8 (≈ 15.3 µM) |
| CN(C)CCn1c(=O)ccc2ncc(F)c(CCC34CCC(NCc5ccc6c(n5)NC(=O)CO6)(CC3)CO4)c21 | 0.5 (≈ 0.908 µM) | 1 (≈ 1.82 µM) | 1 (≈ 1.82 µM) | 16 (≈ 29.1 µM) | 0.5 (≈ 0.908 µM) | 8 (≈ 14.5 µM) |
| O=C1COc2ccc(CNC34CCC(CCc5c(F)cnc6ccc(=O)n(CCN7CCOCC7)c56)(CC3)OC4)nc2N1 | 1 (≈ 1.69 µM) | > 16 | 2 (≈ 3.37 µM) | 16 (≈ 27 µM) | 8 (≈ 13.5 µM) | > 16 |
| N#CCn1c(=O)ccc2ncc(F)c(CCC34CCC(NCc5ccc6c(n5)NC(=O)CO6)(CC3)CO4)c21 | 0.016 (≈ 0.0309 µM) | 1 (≈ 1.93 µM) | 0.25 (≈ 0.482 µM) | 2 (≈ 3.86 µM) | 0.25 (≈ 0.482 µM) | 4 (≈ 7.71 µM) |
| O=C(NC12CCC(CCc3c(F)cnc4ccc(=O)n(CCO)c34)(CC1)OC2)c1cc2c(cn1)OCCC2 | 0.5 (≈ 0.957 µM) | > 32 | 1 (≈ 1.91 µM) | 16 (≈ 30.6 µM) | 8 (≈ 15.3 µM) | > 32 |
| O=c1ccc2ncc(F)c(CCC34CCC(NCc5ccc6nsnc6c5)(CC3)CO4)c2n1CCO | 0.125 (≈ 0.245 µM) | 32 (≈ 62.8 µM) | 1 (≈ 1.96 µM) | 8 (≈ 15.7 µM) | 4 (≈ 7.85 µM) | > 64 |
| O=C1COc2ccc(CNC34CCC(CCc5ccnc6ccc(=O)n(CCO)c56)(CC3)OC4)nc2N1 | 2 (≈ 3.96 µM) | 8 (≈ 15.8 µM) | 4 (≈ 7.91 µM) | 16 (≈ 31.6 µM) | 8 (≈ 15.8 µM) | 32 (≈ 63.3 µM) |
| CN(C)C(=O)Cn1c(=O)ccc2ncc(F)c(CCC34CCC(NCc5ccc6c(n5)NC(=O)CO6)(CC3)CO4)c21 | 1 (≈ 1.77 µM) | 32 (≈ 56.7 µM) | 4 (≈ 7.08 µM) | 32 (≈ 56.7 µM) | 8 (≈ 14.2 µM) | 64 (≈ 113 µM) |

| Structure (SMILES) | MIC (Staphylococcus aureus) [µg/mL] | MIC (Escherichia coli) [µg/mL] | MIC (Streptococcus pneumoniae) [µg/mL] | MIC (Enterococcus faecium) [µg/mL] | MIC (Acinetobacter baumannii) [µg/mL] | MIC (Pseudomonas aeruginosa) [µg/mL] |
| --- | --- | --- | --- | --- | --- | --- |
| NCCn1c(=O)ccc2ncc(F)c(CCC34CCC(NCc5ccc6c(n5)NC(=O)CO6)(CC3)CO4)c21 | 1 (≈ 1.91 µM) | 1 (≈ 1.91 µM) | 1 (≈ 1.91 µM) | 8 (≈ 15.3 µM) | 16 (≈ 30.6 µM) | 2 (≈ 3.83 µM) |
| N#Cc1cnc2ccc(=O)n(CCO)c2c1CCC12CCC(NCc3ccc4c(n3)NC(=O)CO4)(CC1)CO2 | 0.125 (≈ 0.236 µM) | 4 (≈ 7.54 µM) | 1 (≈ 1.88 µM) | 4 (≈ 7.54 µM) | 1 (≈ 1.88 µM) | 16 (≈ 30.2 µM) |
| C[C@@H]1CCc2cc(CNC34CCC(CCc5c(F)cnc6ccc(=O)n(CCO)c56)(CC3)OC4)ncc2O1 | 1 (≈ 1.91 µM) | > 64 | 1 (≈ 1.91 µM) | 32 (≈ 61.2 µM) | 64 (≈ 122 µM) | > 64 |
| O=c1ccc2ncc(F)c(CCC34CCC(NCc5cc6c(cn5)OCCO6)(CC3)CO4)c2n1CCO | 0.125 (≈ 0.245 µM) | 16 (≈ 31.3 µM) | 0.5 (≈ 0.979 µM) | 2 (≈ 3.92 µM) | 4 (≈ 7.83 µM) | > 16 |
| O=c1ccc2ncc(F)c(CCC34CCC(NCc5csc(-c6cccs6)n5)(CC3)CO4)c2n1CCO | 0.5 (≈ 0.925 µM) | 64 (≈ 118 µM) | 1 (≈ 1.85 µM) | 16 (≈ 29.6 µM) | 32 (≈ 59.2 µM) | > 32 |
| O=c1ccc2ncc(F)c(CCC34CCC(NC/C=C/c5cc(F)ccc5F)(CC3)CO4)c2n1CCO | 0.031 (≈ 0.0604 µM) | 2 (≈ 3.89 µM) | 0.063 (≈ 0.123 µM) | 2 (≈ 3.89 µM) | 0.125 (≈ 0.243 µM) | 8 (≈ 15.6 µM) |
| O=c1ccc2ncc(F)c(CCC34CCC(NCc5cnc(C6CCCCC6)s5)(CC3)CO4)c2n1CCO | > 32 | > 32 | > 32 | > 32 | > 32 | > 16 |
| CNC(=O)Cn1c(=O)ccc2ncc(F)c(CCC34CCC(NCc5ccc6c(n5)NC(=O)CO6)(CC3)CO4)c21 | 4 (≈ 7.26 µM) | 32 (≈ 58.1 µM) | 1 (≈ 1.82 µM) | 16 (≈ 29.1 µM) | 64 (≈ 116 µM) | 32 (≈ 58.1 µM) |
| O=c1ccc2ncc(F)c(CCC34CCC(NCc5cnc(-c6ccsc6)s5)(CC3)CO4)c2n1CCO | 2 (≈ 3.7 µM) | > 32 | 2 (≈ 3.7 µM) | > 32 | > 32 | > 32 |
| COc1ccc2nc(CNC34CCC(CCc5c(F)cnc6ccc(=O)n(CCO)c56)(CC3)OC4)c(F)cc2n1 | > 16 | > 16 | > 16 | > 16 | > 16 | > 16 |
| C[C@H]1CCc2cc(CNC34CCC(CCc5c(F)cnc6ccc(=O)n(CCO)c56)(CC3)OC4)ncc2O1 | 1 (≈ 1.91 µM) | 64 (≈ 122 µM) | 2 (≈ 3.83 µM) | 32 (≈ 61.2 µM) | 16 (≈ 30.6 µM) | > 64 |
| Cn1cc(-c2ncc(CNC34CCC(CCc5c(F)cnc6ccc(=O)n(CCO)c56)(CC3)OC4)s2)cn1 | 2 (≈ 3.71 µM) | > 32 | 8 (≈ 14.9 µM) | > 32 | > 32 | > 32 |
| O=c1ccc2nc(CNC34CCC(CCc5c(F)cnc6ccc(=O)n(CCO)c56)(CC3)OC4)c(F)cc2[nH]1 | > 16 | > 16 | > 16 | > 16 | > 16 | > 16 |
| O=c1ccc2ncc(F)c(CCC34CCC(NCc5ccc6nonc6c5)(CC3)CO4)c2n1CCO | 2 (≈ 4.05 µM) | > 64 | 32 (≈ 64.8 µM) | 64 (≈ 130 µM) | 64 (≈ 130 µM) | > 64 |
| COc1ccc2nc(CNC34CCC(CCc5c(F)cnc6ccc(=O)n(CCO)c56)(CC3)OC4)c(F)c(C)c2n1 | 32 (≈ 56.6 µM) | 32 (≈ 56.6 µM) | 32 (≈ 56.6 µM) | 32 (≈ 56.6 µM) | 32 (≈ 56.6 µM) | 32 (≈ 56.6 µM) |
| CS(=O)(=O)NCCn1c(=O)ccc2ncc(F)c(CCC34CCC(NCc5ccc6c(n5)NC(=O)CO6)(CC3)CO4)c21 | 0.5 (≈ 0.832 µM) | 16 (≈ 26.6 µM) | 1 (≈ 1.66 µM) | 8 (≈ 13.3 µM) | 16 (≈ 26.6 µM) | 32 (≈ 53.3 µM) |
| NC(=O)Cn1c(=O)ccc2ncc(F)c(CCC34CCC(NCc5ccc6c(n5)NC(=O)CO6)(CC3)CO4)c21 | 4 (≈ 7.45 µM) | 32 (≈ 59.6 µM) | 4 (≈ 7.45 µM) | 64 (≈ 119 µM) | 64 (≈ 119 µM) | 16 (≈ 29.8 µM) |
| O=c1ccc2ncc(F)c(CCC34CCC(NC[C@@H]5C[C@H]5c5cc(F)ccc5F)(CC3)CO4)c2n1CCO | 0.5 (≈ 0.948 µM) | 64 (≈ 121 µM) | 1 (≈ 1.9 µM) | 16 (≈ 30.3 µM) | 32 (≈ 60.7 µM) | > 64 |
| O=c1ccc2ncc(F)c(CCC34CCC(NCc5cnc(-c6ccccn6)s5)(CC3)CO4)c2n1CCO | > 32 | > 32 | > 32 | > 32 | > 32 | > 16 |
| O=c1ccc2ncc(F)c(CCC34CCC(NCCCc5cc(F)ccc5F)(CC3)CO4)c2n1CCO | 0.125 (≈ 0.242 µM) | 16 (≈ 31 µM) | 0.5 (≈ 0.97 µM) | 16 (≈ 31 µM) | 1 (≈ 1.94 µM) | 64 (≈ 124 µM) |
| O=c1ccc2ncc(=O)n3c2n1C[C@H]3CN1CCC(NCc2cc3c(cn2)OCCC3)CC1 [GEPOTIDACIN] | 0.25 (≈ 0.557 µM) | 2 (≈ 4.46 µM) |  |  |  |  |
